Experimental findings from publication PMC5816602, “Optimized peptide based inhibitors targeting the dihydrofolate reductase pathway in cancer” (Scientific Reports, 2018) are described below.

In assay [1] the target is T1, hDHFR (Homo sapiens, UniProt P00374).
T1 construct: purchased Sigma CS0340
T1 sequence (P00374 1-187): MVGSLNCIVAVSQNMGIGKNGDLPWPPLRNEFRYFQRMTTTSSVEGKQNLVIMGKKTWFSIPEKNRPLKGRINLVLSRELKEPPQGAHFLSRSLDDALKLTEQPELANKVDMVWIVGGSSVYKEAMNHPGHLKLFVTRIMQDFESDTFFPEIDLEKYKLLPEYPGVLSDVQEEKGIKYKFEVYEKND
Nature of the assay: In vitro DHFR inhibition assay (DHFR assay kit, absorbance at 340 nm). The class given is biochemical. As to the method:
The activity of the designed peptides against hDHFR was evaluated by measuring the conversion of dihydrofolic acid to tetrahydrofolic acid in the presence of the test peptide using […].
The dihydrofolate reductase inhibition assay was performed using DHFR assay kit (Sigma product code CS0340) according to the reported protocol. All the dilutions were made in assay buffer, pH 7.5. 10 mM stock solutions of dihydrofolic acid and NADPH in assay buffer were prepared. Stock solutions of the test peptides with different concentrations were prepared in DMSO, and an amount of 20 μL of each was taken to attain final concentration of 10^−9, 10^−8, 10^−7, 10^−6, 10^−5, and 10^−4 M in the respective wells of 96-well plate containing assay buffer. An amount of 0.1 unit of DHFR as supplied in the kit was diluted, and an amount of 20 μL of its 3 × 10^−3 unit was used in each reaction. Each well of the 96-well plate was charged with 157.8 μL of assay buffer. […] Percentage inhibition of enzymatic activity was calculated after nullifying the effects of NADPH, folate, and solvent. IC50 was calculated by plotting a graph between percentage inhibition and the corresponding concentration of the peptide.

In another assay the test system is A549 cells. The settings on record: 48 hrs, MTT; for effect on cell viability of A549 cells: increasing concentrations.
Assay [2] concerns the target T1, hDHFR. Description: Isothermal titration calorimetry (ITC). The class given is binding. Particulars: Table 2, read-out: Ka (converted). An excerpt:
The binding of peptide 2 with hDHFR was further determined using isothermal titration calorimetry (ITC). ITC is considered as one of the most precise techniques to measure the affinity between a macromolecule and a small molecule. Since it measures the heat absorbed or released during complexation, it allows simultaneous determination of all binding parameters with respect to the binding constant (K), enthalpy (ΔH), and entropy (ΔS) in a single experiment. The solution of peptide 2 (in the syringe) was injected into the DHFR enzyme solution taken in the sample cell. In one experiment, 20 consecutive injections of 2 μL of 250 μM peptide were given to the sample cell. Upon each titration, the amount of heat released or absorbed was measured and used to determine the association constant (Ka), binding enthalpy (ΔH), and entropy (ΔS).
In general terms: ITC needs no label: the signal is the heat of the interaction.

Where [3] appears, read: six concentrations 10^−4 to 10^−9 M, assay buffer pH 7.5, read-out: IC50 against hDHFR.

≈ marks a conversion by molar mass, not a printed value. Read-outs that look alike come from different tables or passages of the source. Residues, ends and D or L forms follow the SMILES beside them. Where only a bound is given, the exact number is not on record here.

Description for A549 cells: Cell viability was measured using 3-(4,5-Dimethylthiazol- 2-yl)-2,5- Diphenyltetrazolium Bromide (MTT) assay. […] Following that, 20 µL of 5 mg/ml of MTT reagent was added in a total volume of 200 µl and incubated for 2 hours. The culture media was removed and the formazan crystals so formed were dissolved in 200 µl of dimethyl sulfoxide (DMSO). Absorbance was measured at 570 nm (with 660 nm reference wavelength) using Tecan plate reader (Infinite M200 Pro). Each individual experiment was repeated at least thrice. Relative cell viability was expressed as a percentage relative to untreated control cells.

As a reminder, the IC50 is the point on the concentration scale where inhibition reaches its midpoint. As for `CSCC[C@H](N)C(=O)N[C@@H](Cc1ccc(O)cc1)C(=O)N[C@@H](CO)C(=O)N[C@@H](CC(C)C)C(=O)O` [Peptide 6, Met-Tyr-Ser-Leu] (H-MYSL-OH; N-terminus assumed), the IC50 at hDHFR [1] (setting [3]) was 8 µM.
Consider `CSCC[C@H](NC(=O)[C@@H](N)Cc1ccc(O)cc1)C(=O)N[C@@H](Cc1ccccc1)C(=O)N[C@@H](CO)C(=O)N[C@@H](CC(C)C)C(=O)O` [Peptide 12, Tyr-Met-Phe-Ser-Leu] (H-YMFSL-OH), for which the 50% inhibitory concentration (IC50) against hDHFR [1] was greater than 90 µM.
`CSCC[C@H](N)C(=O)N[C@@H](Cc1ccccc1)C(=O)N[C@@H](Cc1ccc(O)cc1)C(=O)NCC(=O)O` [Peptide 4, Met-Phe-Tyr-Gly] (H-MFYG-OH; N-terminus assumed): the half-inhibitory concentration (IC50) at hDHFR [1] (setting [3]) is greater than 90 µM. Further, the “effect on cell viability of A549 cells” value with A549 cells was “did not affect their cell viability”.
Regarding `CSCC[C@H](NC(=O)[C@H](Cc1ccccc1)NC(=O)[C@H](CO)NC(=O)[C@@H](N)Cc1ccc(O)cc1)C(=O)N[C@@H](CC(C)C)C(=O)O` [Peptide 11, Tyr-Ser-Phe-Met-Leu] (H-YSFML-OH), the IC50 at hDHFR [1] was found to be 0.08 µM.
In turn, `CSCC[C@H](NC(=O)[C@H](Cc1ccc(O)cc1)NC(=O)[C@@H](N)Cc1ccccc1)C(=O)NCC(=O)N[C@@H](CC(C)C)C(=O)O` [Peptide 9, Phe-Tyr-Met-Gly-Leu] (H-FYMGL-OH) showed an IC50 against hDHFR [1] greater than 80 µM.
`CSCC[C@H](N)C(=O)N[C@@H](Cc1ccccc1)C(=O)N[C@@H](Cc1ccc(O)cc1)C(=O)NCC(=O)N[C@@H](CC(C)C)C(=O)O` [Peptide 10, Met-Phe-Tyr-Gly-Leu] (H-MFYGL-OH): the IC50 at hDHFR [1] (setting [3]) was greater than 100 µM.
For the compound `CSCC[C@H](NC(=O)[C@@H](N)Cc1ccccc1)C(=O)N[C@@H](Cc1ccc(O)cc1)C(=O)N[C@@H](CC(C)C)C(=O)O` [Peptide 2, Phe-Met-Tyr-Leu] (H-FMYL-OH), the IC50 on hDHFR [1] (setting [3]) worked out at 0.13 µM; in the assay on A549 cells (read-out: IC50 in A549 cells), 82 µM. In addition, the Kd at hDHFR [2] was 0.909 µM. The “IC50 in A549 cells” value in the assay with A549 cells was determined as 47 µg/mL (≈ 82.1 µM).
Turning to `CSCC[C@H](NC(=O)[C@@H](N)Cc1ccc(O)cc1)C(=O)N[C@@H](CO)C(=O)N[C@@H](CC(C)C)C(=O)O` [Peptide 5, Tyr-Met-Ser-Leu] (H-YMSL-OH; N-terminus assumed), on hDHFR [1], the IC50 is greater than 100 µM.
Same read-out and setting: the same measure for `CSCC[C@H](NC(=O)[C@H](Cc1ccccc1)NC(=O)[C@@H](N)Cc1ccc(O)cc1)C(=O)N[C@@H](CC(C)C)C(=O)O` [Peptide 1, Tyr-Phe-Met-Leu] (H-YFML-OH; N-terminus assumed): greater than 100 µM.
Still for that read-out and setting: the figure for `CSCC[C@H](NC(=O)[C@H](Cc1ccccc1)NC(=O)[C@@H](N)Cc1ccc(O)cc1)C(=O)N[C@@H](CC(C)C)C(=O)NCC(=O)O` [Peptide 7, Tyr-Phe-Met-Leu-Gly] (H-YFMLG-OH) is greater than 100 µM.
`CSCC[C@H](NC(=O)[C@H](Cc1ccc(O)cc1)NC(=O)[C@@H](N)Cc1ccccc1)C(=O)NCC(=O)O` [Peptide 3, Phe-Tyr-Met-Gly] (H-FYMG-OH; N-terminus assumed): the IC50 at hDHFR [1] (setting [3]) turned out to be 5.6 µM. Besides, the “effect on cell viability of A549 cells” value in the assay on A549 cells is “did not affect their cell viability”.
Turning to `CSCC[C@H](NC(=O)[C@@H](N)Cc1ccccc1)C(=O)N[C@@H](Cc1ccc(O)cc1)C(=O)N[C@@H](CC(C)C)C(=O)NCC(=O)O` [Peptide 8, Phe-Met-Tyr-Leu-Gly] (H-FMYLG-OH), at hDHFR [1] (setting [3]), the IC50 is greater than 100 µM.
